Measurements from patent US10961231B2, “NTCP inhibitors” (National Institute of Biological Sciences, Beijing, priority 2018, dated 2021).

The compounds below were run against T1, NTCP (Homo sapiens, UniProt Q14973) (assay: [3H]-TCA uptake assay (NTCP inhibition)). Details: IC50, given as a range, marked * (asterisk not explained).
T1 sequence (Q14973 1-349): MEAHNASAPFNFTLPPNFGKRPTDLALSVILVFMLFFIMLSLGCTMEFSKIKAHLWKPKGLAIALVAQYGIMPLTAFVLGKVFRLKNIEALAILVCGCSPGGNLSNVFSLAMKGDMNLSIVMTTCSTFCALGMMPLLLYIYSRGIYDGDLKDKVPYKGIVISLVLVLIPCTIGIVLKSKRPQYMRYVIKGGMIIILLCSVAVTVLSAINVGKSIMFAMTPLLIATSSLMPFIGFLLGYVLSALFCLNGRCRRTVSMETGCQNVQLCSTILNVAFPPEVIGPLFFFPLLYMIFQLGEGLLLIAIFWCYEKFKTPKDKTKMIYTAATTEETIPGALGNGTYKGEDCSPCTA
Assay type: cell-based
How it was run: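 Read-out is liquid scintillation counting of Triton X-100 lysates after 15 min, 37° C uptake of 1 μM [3H]-taurocholate in Na+ Ringer's buffer (145 mM Na). Beforehand, PTH and HepG2-NTCP cells had 24 h in PMM for NTCP induction and 2 h of compound or DMSO treatment.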

| Structure (SMILES) | IC50 |
| --- | --- |
| CCC1NC(=O)C(C2OC(Oc3cccc(O)c3)CC2C)N(C)C(=O)C(C(C)C)N(C)C(=O)C(CC(C)C)N(C)C(=O)C(CC(C)C)N(C)C(=O)C(C)NC(=O)C(C)NC(=O)C(CC(C)C)N(C)C(=O)C(C(C)C)NC(=O)C(CC(C)C)N(C)C(=O)CN(C)C1=O (stereo not drawn) [Compound 25A-o] | 1 to 100 µM |
| CCC1NC(=O)C(C2OC(Oc3ccc(OC)cc3)CC2C)N(C)C(=O)C(C(C)C)N(C)C(=O)C(CC(C)C)N(C)C(=O)C(CC(C)C)N(C)C(=O)C(C)NC(=O)C(C)NC(=O)C(CC(C)C)N(C)C(=O)C(C(C)C)NC(=O)C(CC(C)C)N(C)C(=O)CN(C)C1=O (stereo not drawn) [Compound 26A-o] | 1 to 100 µM |
| CCOc1ccc(OC2CC(C)C(C3C(=O)NC(CC)C(=O)N(C)CC(=O)N(C)C(CC(C)C)C(=O)NC(C(C)C)C(=O)N(C)C(CC(C)C)C(=O)NC(C)C(=O)NC(C)C(=O)N(C)C(CC(C)C)C(=O)N(C)C(CC(C)C)C(=O)N(C)C(C(C)C)C(=O)N3C)O2)cc1 (stereo not drawn) [Compound 27A-o] | 1 to 100 µM |
| CCC1NC(=O)C(C2OC(Oc3cccc(OC)c3)CC2C)N(C)C(=O)C(C(C)C)N(C)C(=O)C(CC(C)C)N(C)C(=O)C(CC(C)C)N(C)C(=O)C(C)NC(=O)C(C)NC(=O)C(CC(C)C)N(C)C(=O)C(C(C)C)NC(=O)C(CC(C)C)N(C)C(=O)CN(C)C1=O (stereo not drawn) [Compound 28A-o] | 1 to 100 µM |
| CCOc1cccc(OC2CC(C)C(C3C(=O)NC(CC)C(=O)N(C)CC(=O)N(C)C(CC(C)C)C(=O)NC(C(C)C)C(=O)N(C)C(CC(C)C)C(=O)NC(C)C(=O)NC(C)C(=O)N(C)C(CC(C)C)C(=O)N(C)C(CC(C)C)C(=O)N(C)C(C(C)C)C(=O)N3C)O2)c1 (stereo not drawn) [Compound 29A-o] | 1 to 100 µM |
| CCC1NC(=O)C(C2OC(Oc3cccc(OC(C)C)c3)CC2C)N(C)C(=O)C(C(C)C)N(C)C(=O)C(CC(C)C)N(C)C(=O)C(CC(C)C)N(C)C(=O)C(C)NC(=O)C(C)NC(=O)C(CC(C)C)N(C)C(=O)C(C(C)C)NC(=O)C(CC(C)C)N(C)C(=O)CN(C)C1=O (stereo not drawn) [Compound 30A-6] | 1 to 100 µM |
| CCCOc1cccc(OC2CC(C)C(C3C(=O)NC(CC)C(=O)N(C)CC(=O)N(C)C(CC(C)C)C(=O)NC(C(C)C)C(=O)N(C)C(CC(C)C)C(=O)NC(C)C(=O)NC(C)C(=O)N(C)C(CC(C)C)C(=O)N(C)C(CC(C)C)C(=O)N(C)C(C(C)C)C(=O)N3C)O2)c1 (stereo not drawn) [Compound 31A-o] | 1 to 100 µM |
| CCC1NC(=O)C(C2OC(Oc3cccc(OCC4CC4)c3)CC2C)N(C)C(=O)C(C(C)C)N(C)C(=O)C(CC(C)C)N(C)C(=O)C(CC(C)C)N(C)C(=O)C(C)NC(=O)C(C)NC(=O)C(CC(C)C)N(C)C(=O)C(C(C)C)NC(=O)C(CC(C)C)N(C)C(=O)CN(C)C1=O (stereo not drawn) [Compound 32A-o] | 1 to 100 µM |

Same assay, conditions: given as a range, marked * (asterisk not explained)

| Structure (SMILES) | IC50 |
| --- | --- |
| CCC1NC(=O)C(C2OC(Oc3cccc(OCc4ccc(F)cc4C)c3)CC2C)N(C)C(=O)C(C(C)C)N(C)C(=O)C(CC(C)C)N(C)C(=O)C(CC(C)C)N(C)C(=O)C(C)NC(=O)C(C)NC(=O)C(CC(C)C)N(C)C(=O)C(C(C)C)NC(=O)C(CC(C)C)N(C)C(=O)CN(C)C1=O (stereo not drawn) [Compound 24A-o] | 1 to 100 µM |

Same assay, conditions: given as a range; assay not given

| Structure (SMILES) | IC50 |
| --- | --- |
| CCC1NC(=O)C(C2OC(Sc3cccc(O)c3)CC2C)N(C)C(=O)C(C(C)C)N(C)C(=O)C(CC(C)C)N(C)C(=O)C(CC(C)C)N(C)C(=O)C(C)NC(=O)C(C)NC(=O)C(CC(C)C)N(C)C(=O)C(C(C)C)NC(=O)C(CC(C)C)N(C)C(=O)CN(C)C1=O [Compound 25A, [2-((2R,3R)-5-(3-hydroxyphenylthio)-3-methyltetrahydrofuran-2-yl)-2-(methylamino)acetic acid]^1-cyclosporine A] | 0.001 to 1 µM |
| CCC1NC(=O)C(C2OC(Sc3ccc(OC)cc3)CC2C)N(C)C(=O)C(C(C)C)N(C)C(=O)C(CC(C)C)N(C)C(=O)C(CC(C)C)N(C)C(=O)C(C)NC(=O)C(C)NC(=O)C(CC(C)C)N(C)C(=O)C(C(C)C)NC(=O)C(CC(C)C)N(C)C(=O)CN(C)C1=O [Compound 26A, [2-((2R,3R)-5-(4-methoxyphenylthio)-3-methyltetrahydrofuran-2-yl)-2-(methylamino)acetic acid]^1-cyclosporin A] | 0.001 to 1 µM |
| CCOc1ccc(SC2CC(C)C(C3C(=O)NC(CC)C(=O)N(C)CC(=O)N(C)C(CC(C)C)C(=O)NC(C(C)C)C(=O)N(C)C(CC(C)C)C(=O)NC(C)C(=O)NC(C)C(=O)N(C)C(CC(C)C)C(=O)N(C)C(CC(C)C)C(=O)N(C)C(C(C)C)C(=O)N3C)O2)cc1 [Compound 27A, [2-((2R,3R)-5-(4-ethoxyphenylthio)-3-methyltetrahydrofuran-2-yl)-2-(methylamino)acetic acid]^1-cyclosporin A] | 0.001 to 1 µM |
| CCC1NC(=O)C(C2OC(Sc3cccc(OC)c3)CC2C)N(C)C(=O)C(C(C)C)N(C)C(=O)C(CC(C)C)N(C)C(=O)C(CC(C)C)N(C)C(=O)C(C)NC(=O)C(C)NC(=O)C(CC(C)C)N(C)C(=O)C(C(C)C)NC(=O)C(CC(C)C)N(C)C(=O)CN(C)C1=O [Compound 28A, [2-((2R,3R)-5-(3-methoxyphenylthio)-3-methyltetrahydrofuran-2-yl)-2-(methylamino)acetic acid]^1-cyclosporin A] | 0.001 to 1 µM |
| CCOc1cccc(SC2CC(C)C(C3C(=O)NC(CC)C(=O)N(C)CC(=O)N(C)C(CC(C)C)C(=O)NC(C(C)C)C(=O)N(C)C(CC(C)C)C(=O)NC(C)C(=O)NC(C)C(=O)N(C)C(CC(C)C)C(=O)N(C)C(CC(C)C)C(=O)N(C)C(C(C)C)C(=O)N3C)O2)c1 [Compound 29A, [2-((2R,3R)-5-(3-ethoxyphenylthio)-3-methyltetrahydrofuran-2-yl)-2-(methylamino)acetic acid]^1-cyclosporin A] | 0.001 to 1 µM |
| CCC1NC(=O)C(C2OC(Sc3cccc(OC(C)C)c3)CC2C)N(C)C(=O)C(C(C)C)N(C)C(=O)C(CC(C)C)N(C)C(=O)C(CC(C)C)N(C)C(=O)C(C)NC(=O)C(C)NC(=O)C(CC(C)C)N(C)C(=O)C(C(C)C)NC(=O)C(CC(C)C)N(C)C(=O)CN(C)C1=O [Compound 30A, [2-((2R,3R)-5-(3-isopropoxyphenylthio)-3-methyltetrahydrofuran-2-yl)-2-(methylamino)acetic acid]^1-cyclosporin] | 0.001 to 1 µM |
| CCCOc1cccc(SC2CC(C)C(C3C(=O)NC(CC)C(=O)N(C)CC(=O)N(C)C(CC(C)C)C(=O)NC(C(C)C)C(=O)N(C)C(CC(C)C)C(=O)NC(C)C(=O)NC(C)C(=O)N(C)C(CC(C)C)C(=O)N(C)C(CC(C)C)C(=O)N(C)C(C(C)C)C(=O)N3C)O2)c1 [Compound 31A, [2-((2R,3R)-3-methyl-5-(3-propoxyphenylthio)tetrahydrofuran-2-yl)-2-(methylamino)acetic acid]^1-cyclosporin A] | 0.001 to 1 µM |
| CCC1NC(=O)C(C2OC(Sc3cccc(OCC4CC4)c3)CC2C)N(C)C(=O)C(C(C)C)N(C)C(=O)C(CC(C)C)N(C)C(=O)C(CC(C)C)N(C)C(=O)C(C)NC(=O)C(C)NC(=O)C(CC(C)C)N(C)C(=O)C(C(C)C)NC(=O)C(CC(C)C)N(C)C(=O)CN(C)C1=O [Compound 32A, [2-((2R,3R)-5-(3-(cyclopropylmethoxy)phenylthio)-3-methyltetrahydrofuran-2-yl)-2-(methylamino)acetic acid]^1-cyclosporin A] | 0.001 to 1 µM |
| CCC1NC(=O)C(C2OC(Sc3cccc(OCC4CCOCC4)c3)CC2C)N(C)C(=O)C(C(C)C)N(C)C(=O)C(CC(C)C)N(C)C(=O)C(CC(C)C)N(C)C(=O)C(C)NC(=O)C(C)NC(=O)C(CC(C)C)N(C)C(=O)C(C(C)C)NC(=O)C(CC(C)C)N(C)C(=O)CN(C)C1=O [Compound 33A, [2-((2R,3R)-3-methyl-5-(3-((tetrahydro-2H-pyran-4-yl)methoxy)phenylthio)tetrahydrofuran-2-yl)-2-(methylamino)acetic acid]^1-cyclosporin A] | 0.001 to 1 µM |
